Experimental data: patent US20220098203A1 (priority 2018, published 2022)
pIC50: −log10 of the molar value. Where two headings read alike, the source gives them in different places.

What was measured:
[1] = system: SAM in HCT116 MTAP-deleted cells; experiment: Cellular assay of target engagement (SAM), LC-MS/MS; assay type: cell-based, human; settings: 72 h, read-out: Cell 72 h SAM Inhibition (MTAP −/−)
How it was run: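 Target engagement was read as intracellular SAM, measured by LC-MS/MS with d3-SAM as internal standard in methanol/acetic acid extracts. These came from MTAP-deleted HCT116 colon carcinoma cells exposed to inhibitor for 72 hrs.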

HCT116 MTAP+/+ = experiment: Inhibition of cellular proliferation (Cell Titer Glo), HCT116 MTAP+/+; assay type: cell-based; settings: Homo sapiens, HCT-116, 96 h, Table 5a, 4 days, read-out: 4 Day Relative Growth Inhibition (MTAP +/+)
How it was run: (§1)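 After 4 days of compound exposure at 37 °C, starting 24 h after plating, growth of the MTAP-wildtype and MTAP-deleted HCT116 pair was measured as ATP luminescence (CellTiter-Glo). The proliferation index was signal minus no-cell blank, divided by blank-corrected 0.2% DMSO control.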

MAT2A homodimer = molecular target: T1, MAT2A homodimer (Homo sapiens, UniProt P31153); experiment: MAT2A biochemical assay (liberated phosphate, PiColorLock Gold); settings: Table 5a; MAT2A biochemical assay; read-out: Enzyme Inhibition
T1 construct: inferred from the Ni sepharose purification and imidazole elution; made in house; host or cells: SF9 insect cells, recombinant baculovirus (Bac to Bac, pFASTBAC1)
How it was run: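 Readout is liberated phosphate (PiColorLock Gold), stoichiometric with SAM production, quantified against a potassium phosphate standard curve. Enzyme: recombinant MAT2A homodimer from Sf9, equilibrated 60 min at 25 °C with compound before 60 min reaction with substrate mix containing 500 μM ATP and 400 μM L-methionine.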

HCT116 MTAP-/- = experiment: Inhibition of cellular proliferation (Cell Titer Glo), HCT116 MTAP-/-; assay type: cell-based, human; settings: 4 days, read-out: 4 Day Relative Growth Inhibition (MTAP −/−)
How it was run: as §1

[2] = Homo sapiens, HCT-116, Table 5a
[3] = Homo sapiens, HCT-116, 96 h, Table 5a
[4] = Table 6, select pairs of compounds

T1 sequence (P31153 whole entry): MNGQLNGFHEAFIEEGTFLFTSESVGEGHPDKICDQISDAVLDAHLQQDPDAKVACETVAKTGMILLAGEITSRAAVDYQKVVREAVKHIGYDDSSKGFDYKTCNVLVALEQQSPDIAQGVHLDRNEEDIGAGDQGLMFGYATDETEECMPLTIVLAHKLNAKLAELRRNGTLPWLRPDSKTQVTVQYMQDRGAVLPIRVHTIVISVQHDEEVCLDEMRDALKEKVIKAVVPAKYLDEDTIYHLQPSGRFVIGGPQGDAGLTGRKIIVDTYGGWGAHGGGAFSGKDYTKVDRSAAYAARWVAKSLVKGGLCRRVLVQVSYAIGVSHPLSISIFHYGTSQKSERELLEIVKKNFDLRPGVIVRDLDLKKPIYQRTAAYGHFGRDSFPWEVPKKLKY

Structure (SMILES)	pIC50 [1, 2]	pIC50 (HCT116 MTAP+/+)	pIC50 (MAT2A homodimer)	pIC50 (HCT116 MTAP-/-; [3])	pIC50 [1, 4]	pIC50 (HCT116 MTAP-/-; [4])
CCOc1ccc2c(n1)N(c1ccc(OC(F)F)cc1)C(=O)N(c1ccn3nccc3c1)C2 [Example 106, 1-(4-(difluoromethoxy)phenyl)-7-ethoxy-3-(pyrazolo[1,5-a]pyridin-5-yl)-3,4-dihydropyrido[2,3-d]pyrimidin-2(1H)-one]	> 7.00	< 6.00	> 7.00	6.00 to 7.00		
COc1ccc(N2C(=O)N(c3ccc4nn(C)cc4c3)Cc3ccc(NC4CCC4)nc32)cc1 [Example 162, 7-(cyclobutylamino)-1-(4-methoxyphenyl)-3-(2-methyl-2H-indazol-5-yl)-3,4-dihydropyrido[2,3-d]pyrimidin-2(1H)-one]	6.00 to 7.00	< 6.00	> 7.00	6.00 to 7.00		
Cn1cc2cc(N3Cc4ncc(NCC(F)(F)F)cc4N(c4ccc(OC(F)F)cc4)C3=O)ccc2n1 [Example 428, 1-(4-(difluoromethoxy)phenyl)-3-(2-methyl-2H-indazol-5-yl)-7-((2,2,2-trifluoroethyl)amino)-3,4-dihydropyrido[3,2-d]pyrimidin-2(1H)-one]	> 7.00	< 6.00	> 7.00	> 7.00		
Cn1cc2cc(N3Cc4cnc(NCC(F)(F)F)nc4N(c4ccc(-c5nc[nH]n5)cc4)C3=O)ccc2n1 [Example 220, 1-(4-(1H-1,2,4-triazol-3-yl)phenyl)-3-(2-methyl-2H-indazol-5-yl)-7-((2,2,2-trifluoroethyl)amino)-3,4-dihydropyrimido[4,5-d]pyrimidin-2(1H)-one]	6.00 to 7.00	< 6.00	> 7.00	6.00 to 7.00		
CCOc1ccc2c(n1)N(c1ccc(OC(F)F)cc1)C(=O)N(c1ccc(OC)cc1)C2 [Example 130, 1-(4-(difluoromethoxy)phenyl)-7-ethoxy-3-(4-methoxyphenyl)-3,4-dihydropyrido[2,3-d]pyrimidin-2(1H)-one]	6.00 to 7.00	< 6.00	> 7.00	6.00 to 7.00		
[2H]C([2H])([2H])Oc1ccc(N2C(=O)N(c3ccc4nn(C)cc4c3)Cc3cnc(NCC)nc32)cc1 [Example 419, 7-(ethylamino)-1-(4-(methoxy-d3)phenyl)-3-(2-methyl-2H-indazol-5-yl)-3,4-dihydropyrimido[4,5-d]pyrimidin-2(1H)-one]	6.00 to 7.00	6.00 to 7.00	> 7.00	6.00 to 7.00		
Cn1cc2cc(N3Cc4ccc(OCC(F)F)nc4N(c4ccc(OC(F)F)cc4)C3=O)ccc2n1 [Example 145, 7-(2,2-difluoroethoxy)-1-(4-(difluoromethoxy)phenyl)-3-(2-methyl-2H-indazol-5-yl)-3,4-dihydropyrido[2,3-d]pyrimidin-2(1H)-one]	> 7.00	< 6.00	> 7.00	> 7.00		
CCSc1ccc2c(n1)N(c1ccc(OC)cc1)C(=O)N(c1ccc3nn(C)cc3c1)C2 [Example 132, 7-(ethylthio)-1-(4-methoxyphenyl)-3-(2-methyl-2H-indazol-5-yl)-3,4-dihydropyrido[2,3-d]pyrimidin-2(1H)-one]	6.00 to 7.00	< 6.00	> 7.00	6.00 to 7.00	6.00 to 7.00	6.00 to 7.00
CCOc1ccc2c(n1)N(c1ccc(OC(F)F)cc1)C(=O)N(c1ccc(=O)n(C)c1)C2 [Example 107, 1-(4-(difluoromethoxy)phenyl)-7-ethoxy-3-(1-methyl-6-oxo-1,6-dihydropyridin-3-yl)-3,4-dihydropyrido[2,3-d]pyrimidin-2(1H)-one]	6.00 to 7.00	< 6.00	> 7.00	6.00 to 7.00		
COc1ccc(N2Cc3cnc(NCC(F)F)nc3N(c3ccc(-c4nc[nH]n4)cc3)C2=O)cc1 [Example 188, 1-(4-(1H-1,2,4-triazol-3-yl)phenyl)-7-((2,2-difluoroethyl)amino)-3-(4-methoxyphenyl)-3,4-dihydropyrimido[4,5-d]pyrimidin-2(1H)-one]	6.00 to 7.00	< 6.00	> 7.00	6.00 to 7.00		
[2H]C([2H])([2H])Oc1ccc(N2C(=O)N(c3ccc4nn(C)c(C)c4c3)Cc3ccc(OCC(F)F)nc32)cc1 [Example 105, 7-(2,2-difluoroethoxy)-3-(2,3-dimethyl-2H-indazol-5-yl)-1-(4-(methoxy-d3)phenyl)-3,4-dihydropyrido[2,3-d]pyrimidin-2(1H)-one]	> 7.00	6.00 to 7.00	> 7.00	> 7.00		
COc1ccc(N2C(=O)N(c3ccc4nn(C)cc4c3)Cc3c(OC)nc(NCC(F)(F)F)nc32)cc1 [Example 246, 5-methoxy-1-(4-methoxyphenyl)-3-(2-methyl-2H-indazol-5-yl)-7-((2,2,2-trifluoroethyl)amino)-3,4-dihydropyrimido[4,5-d]pyrimidin-2(1H)-one]	6.00 to 7.00	< 6.00	> 7.00	6.00 to 7.00		
[2H]C([2H])([2H])Oc1ccc(N2C(=O)N(c3ccc4nc(C)n(C)c4c3)Cc3ccc(OCC(F)F)nc32)cc1 [Example 401, 7-(2,2-difluoroethoxy)-3-(1,2-dimethyl-1H-benzo[d]imidazol-6-yl)-1-(4-(methoxy-d3)phenyl)-3,4-dihydropyrido[2,3-d]pyrimidin-2(1H)-one]	> 7.00	< 6.00	> 7.00	> 7.00		
Cn1cnc2ccc(N3Cc4cnc(NCC(F)(F)F)nc4N(c4ccc(-c5nc[nH]n5)cc4)C3=O)cc21 [Example 218, 1-(4-(1H-1,2,4-triazol-3-yl)phenyl)-3-(1-methyl-1H-benzo[d]imidazol-6-yl)-7-((2,2,2-trifluoroethyl)amino)-3,4-dihydropyrimido[4,5-d]pyrimidin-2(1H)-one]	6.00 to 7.00	< 6.00	> 7.00	6.00 to 7.00		
CCNc1ncc2c(n1)N(c1ccc(OC(F)F)cc1)C(=O)N(c1ccc3nn(C)cc3c1)C2 [Example 190, 1-(4-(difluoromethoxy)phenyl)-7-(ethylamino)-3-(2-methyl-2H-indazol-5-yl)-3,4-dihydropyrimido[4,5-d]pyrimidin-2(1H)-one]	6.00 to 7.00	< 6.00	> 7.00	6.00 to 7.00	6.00 to 7.00	6.00 to 7.00
COc1ccc(N2C(=O)N(c3ccc(=O)n(C)c3)Cc3cnc(NCC(F)(F)F)nc32)cc1 [Example 232, 1-(4-methoxyphenyl)-3-(1-methyl-6-oxo-1,6-dihydropyridin-3-yl)-7-((2,2,2-trifluoroethyl)amino)-3,4-dihydropyrimido[4,5-d]pyrimidin-2(1H)-one]	< 6.00	< 6.00	6.00 to 7.00	< 6.00		
[2H]C([2H])([2H])Oc1ccc(N2C(=O)N(c3ccc4nn(C)cc4c3)Cc3c(N)nc(NCC(F)(F)F)nc32)cc1 [Example 430, 5-amino-1-(4-(methoxy-d3)phenyl)-3-(2-methyl-2H-indazol-5-yl)-7-((2,2,2-trifluoroethyl)amino)-3,4-dihydropyrimido[4,5-d]pyrimidin-2(1H)-one]	> 7.00	< 6.00	> 7.00	> 7.00		
[2H]C([2H])([2H])Oc1ccc(N2C(=O)N(c3ccc4nn(CCC(F)(F)F)cc4c3)Cc3ccc(OCC(F)F)nc32)cc1 [Example 128, 7-(2,2-difluoroethoxy)-1-(4-methoxy-d3-phenyl)-3-(2-(3,3,3-trifluoropropyl)-2H-indazol-5-yl)-3,4-dihydropyrido[2,3-d]pyrimidin-2(1H)-one]	6.00 to 7.00	< 6.00	> 7.00	6.00 to 7.00		
CCOc1cnc2c(c1)N(c1ccc(OC(F)F)cc1)C(=O)N(c1ccc(OC)cc1)C2 [Example 289, 1-(4-(difluoromethoxy)phenyl)-7-ethoxy-3-(4-methoxyphenyl)-3,4-dihydropyrido[3,2-d]pyrimidin-2(1H)-one]	< 6.00	< 6.00	6.00 to 7.00	< 6.00		
CCOc1cnc2c(c1)N(c1ccc(Cl)cc1)C(=O)N(c1ccc3nn(C)cc3c1)C2 [Example 291]	6.00 to 7.00	< 6.00	6.00 to 7.00	< 6.00		
Cn1cnc2ccc(N3Cc4ccc(OCC(F)(F)F)nc4N(c4ccc(OC(F)F)cc4)C3=O)cc21 [Example 273]	6.00 to 7.00	< 6.00	> 7.00	6.00 to 7.00		
COc1ccc(N2Cc3ncc(NCC(F)(F)F)nc3N(c3ccc(OC(F)F)cc3)C2=O)cc1 [Example 415, 1-(4-(difluoromethoxy)phenyl)-3-(4-methoxyphenyl)-7-((2,2,2-trifluoroethyl)amino)-3,4-dihydropteridin-2(1H)-one]	6.00 to 7.00	6.00 to 7.00	> 7.00	6.00 to 7.00		
